Test results from paper PMC8066730, “Alteration of Anticancer and Protein-Binding Properties of Gold(I) Alkynyl by Phenolic Schiff Bases Moieties” (Pharmaceutics, 2021).

How the values were obtained:
[1] = target: human serum albumin (HSA) (Homo sapiens, UniProt P02768); experiment: HSA fluorescence quenching binding study; parameters: Kq (quenching rate constant): unit not given here; conditions: for n (number of binding sites) / Ksv (Stern–Volmer quenching constant) / Kq (quenching rate constant) / ∆G^0 (Gibbs free energy of binding to HSA): 295 K; for Ksv (Stern–Volmer quenching constant): HSA 32 µM, Tris-HCl/NaCl buffer pH 7.4, ca. 20% DMSO; for Kq (quenching rate constant): Ksv = Kq × τ0, τ0 = 7 ns; for ∆G^0 (Gibbs free energy of binding to HSA): calculated from Kb; for fold enhancement in HSA binding affinity on replacing triphenylphosphine with tricyclohexylphosphine: proceeding from 1 to 2 and 3 to 5; for fold increase in HSA binding affinity on introducing the o-phenolic moiety: proceeding from 1 to 3 and 2 to 5
Method: Human serum albumin (HSA) solution (32 µM) was prepared in Tris-HCl/NaCl aqueous buffer (pH = 7.4). The solution was titrated with different concentrations of complexes 1–5 in DMSO (the amount of DMSO was maintained at ca. 20% v/v). The changes in the emission intensity of the protein were followed at around 330 nm upon excitation at 275 nm after incubating the complexes for 4 min at 295 K. The Stern–Volmer quenching constants (KSV) were obtained from Equation (1), where Io and I are the emission intensities of the protein in the absence and the presence of the complexes, respectively. The […]; the KSV value was defined as the slope of the line. The Stern–Volmer constant is related to the quenching constant by Equation (2), where Kq is the quenching rate constant, and τ0 is the average lifetime of the fluorescence for free HSA (τ0 = 7 ns). The binding constant (Kb, M^−1) and the number of binding sites (n) were calculated by plotting log[Io − I/I] against Log [Au complex], where the slope equals n and the intercept is equivalent to Log Kb according to Equation (3). Gibbs free energy (∆G^0) of the binding to HSA protein can be calculated by employing Equation (4), using the binding constant (Kb, M^−1). I0/I = 1 + Ksv [Au complex](1) Ksv = Kq × τ0(2) Log(I0 − I)/I = Log Kb + n Log [Au complex](3) ∆G^0 = −R × T × Ln × Kb(4)

[2] = system: HOP-62 (non-small-cell lung cancer cell line); experiment: SRB cytotoxicity assay, HOP-62; type: cell-based, human; conditions: 3 days incubation, DMSO solutions
Method: (§1) The cells were obtained by the Egyptian Holding Company for Biological Products and Vaccines (VACSERA) and then maintained in the tissue culture unit. Cells were grown in RPMI-1640 medium, supplemented with 10% heat inactivated FBS, 50 units/mL of penicillin, and […] of streptomycin, and maintained in a humidified atmosphere with 5% carbon dioxide. The cells were kept as monolayer cultures by serial sub-culturing, using cell culture reagents from Lonza (Basel, Switzerland). The antitumor activities of the complexes were assessed against OVCAR-3 (ovarian carcinoma cancer) and HOP-62 (non-small-cell lung cancer) cell lines.
(§2) The sulforhodamine B (SRB) assay method was applied to determine the cytotoxicity, as described in the literature. Exponentially growing cells were collected using 0.25% Trypsin-EDTA and seeded in 96-well plates at 1000–2000 cells/well in RBMI-1640 supplemented medium. The cells were kept in the medium for 24 h and then incubated for 3 days with various concentrations of the gold compounds. Following 3 days of treatment, the cells were fixed with 10% Cl3CCOOH for 60 min at 4 °C. Wells were stained for 10 min at room temperature with 0.4% SRBC dissolved in 1% CH3COOH. The plates were air dried for 24 h, and the dye was dissolved in Tris-HCl for 5 min with shaking at 1600 rpm. The optical density of each well was evaluated spectrophotometrically at 564 nm with an ELISA microplate reader (ChroMate-4300, Orlando, FL, USA). The half […] inhibitory concentration (IC50) values were calculated from a Boltzmann sigmoidal concentration response curve using nonlinear regression fitting models (Graph Pad, Prism Version 9, San Diego, CA, USA).

[3] = system: OVCAR-3 (ovarian carcinoma cancer cell line); experiment: SRB cytotoxicity assay, OVCAR-3; type: cell-based; conditions: for IC50: 3 days incubation, SRB, DMSO solutions
Method: as §1, §2

Sequence of human serum albumin (HSA) (P02768 25-609): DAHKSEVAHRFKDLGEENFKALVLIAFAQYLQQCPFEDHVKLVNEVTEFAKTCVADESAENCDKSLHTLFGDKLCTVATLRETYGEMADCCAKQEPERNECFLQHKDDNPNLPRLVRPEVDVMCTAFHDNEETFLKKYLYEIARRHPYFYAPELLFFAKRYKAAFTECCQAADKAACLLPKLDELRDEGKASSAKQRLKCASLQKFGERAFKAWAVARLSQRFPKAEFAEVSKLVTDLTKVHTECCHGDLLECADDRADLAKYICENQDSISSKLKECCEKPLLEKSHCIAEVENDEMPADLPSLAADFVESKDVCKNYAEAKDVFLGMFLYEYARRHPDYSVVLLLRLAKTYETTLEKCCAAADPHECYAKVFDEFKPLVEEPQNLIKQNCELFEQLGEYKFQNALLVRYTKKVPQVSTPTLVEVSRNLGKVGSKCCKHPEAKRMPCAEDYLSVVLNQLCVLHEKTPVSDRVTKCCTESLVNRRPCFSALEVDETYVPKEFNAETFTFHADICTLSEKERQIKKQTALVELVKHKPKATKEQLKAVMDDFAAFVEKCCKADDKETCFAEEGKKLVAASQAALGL

| Compound | n (number of binding sites) [1] | Ksv (Stern–Volmer quenching constant) [1] | Kq (quenching rate constant) [1] | ∆G^0 (Gibbs free energy of binding to HSA) [1] | fold enhancement in HSA binding affinity on replacing triphenylphosphine with tricyclohexylphosphine [1] | IC50 [2] | IC50 [3] | HSA binding constant relative to complex 3 (2-hydroxy) ([1]; ratio of Kb, complex 4 vs complex 3) | cytotoxic activity against OVCAR-3 in words ([3]; compared with cisplatin) | fold increase in HSA binding affinity on introducing the o-phenolic moiety [1] |
| --- | --- | --- | --- | --- | --- | --- | --- | --- | --- | --- |
| OHC-4-C6H4-C≡C-Au-PCy3 [Compound 2] | 1.16 | 2.8 ×10^4 | 4.00 ×10^12 | -7.15 kcal/mol | 30 fold | 14.82 ± 0.13 µM | 15.9 ± 0.53 µM | – | – | – |
| N.N.[Cl][Pt][Cl] [cisplatin, reference compound] | – | – | – | – | – | 3.91 ± 0.2 µM | 5.89 ± 0.12 µM | – | – | – |
| Au(C≡C-C6H4-4-CHO)(PPh3) [Compound 1] | 0.82 | 4.7 ×10^4 | 6.71 ×10^12 | -5.07 kcal/mol | – | 12.5 ± 0.43 µM | 13.7 ± 0.53 µM | – | – | – |
| Oc1ccc(N=Cc2ccc(C#[C][Au][PH](c3ccccc3)(c3ccccc3)c3ccccc3)cc2)cc1 [Compound 4, HO–4–C6H4–N=C–4-C6H4-C≡C–Au-PPh3] | 1.61 | 71.5 ×10^4 | 102.21 ×10^12 | -12.4 kcal/mol | – | 8.16 ± 0.43 µM | 5.27 ± 0.11 µM | 6400 times | comparable to that of cisplatin | – |
| HO–2–C6H4–N=C–4-C6H4-C≡C–Au-PCy3 [Compound 5] | 1.37 | 37.1 ×10^4 | 52.96 ×10^12 | -10.27 kcal/mol | 170 fold | 7.55 ± 0.43 µM | 9.11 ± 0.12 µM | – | – | 240 fold |
| HO–2–C6H4–N=C–4-C6H4-C≡C–Au-PPh3 [Compound 3] | 0.96 | 38.9 ×10^4 | 55.57 ×10^12 | -7.239 kcal/mol | – | 7.25 ± 0.21 µM | 9.4 ± 0.17 µM | – | – | 40 fold |
